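Briefly, cells in 96-well plates were exposed to five compound concentrations for 48 h, and endpoints were estimated by linear interpolation. Here, GI50 denotes the concentration required for 50% inhibition of growth.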 Activity calls are given as the source filed them. Rule as the data show it: active = GI50 up to about 1.1 µM and inactive = higher.
Tests used:
Experiment in all cases: NCI tumour cell line growth inhibition, 48 h
T47D = tested on: T47D
OVCAR-5 = tested on: OVCAR-5
NCI-H226 = tested on: NCI-H226
SK-OV-3 = tested on: SK-OV-3
M14 = tested on: M14
BT-549 = tested on: BT-549
UO-31 = tested on: UO-31
SK-MEL-5 = tested on: SK-MEL-5
COLO 205 = tested on: COLO 205
NCI-H522 = tested on: NCI-H522
OVCAR-3 = tested on: OVCAR-3
ACHN = tested on: ACHN
SK-MEL-2 = tested on: SK-MEL-2
IGROV-1 = tested on: IGROV-1
Malme-3M = tested on: Malme-3M
MOLT-4 = tested on: MOLT-4
A498 = tested on: A498
EKVX = tested on: EKVX
UACC-257 = tested on: UACC-257
MDA-N = tested on: MDA-N
MDA-MB-435 = tested on: MDA-MB-435
NCI-H23 = tested on: NCI-H23
RXF 393 = tested on: RXF 393
K562 = tested on: K562
PC-3 = tested on: PC-3
DU-145 = tested on: DU-145
HCT-116 = tested on: HCT-116
SK-MEL-28 = tested on: SK-MEL-28
SF-268 = tested on: SF-268
SNB-75 = tested on: SNB-75
MCF7 = tested on: MCF7
HCT-15 = tested on: HCT-15
SNB-19 = tested on: SNB-19
CAKI-1 = tested on: CAKI-1
HT-29 = tested on: HT-29
OVCAR-4 = tested on: OVCAR-4
KM12 = tested on: KM12
SW-620 = tested on: SW-620
TK-10 = tested on: TK-10
CCRF-CEM = tested on: CCRF-CEM
A549 = tested on: A549
SF-539 = tested on: SF-539
RPMI-8226 = tested on: RPMI-8226
UACC-62 = tested on: UACC-62
HCC 2998 = tested on: HCC 2998
SN12C = tested on: SN12C
SR = tested on: SR
OVCAR-8 = tested on: OVCAR-8
HOP-92 = tested on: HOP-92
HL-60 = tested on: HL-60
HOP-62 = tested on: HOP-62
Hs-578T = tested on: Hs-578T
LOX IMVI = tested on: LOX IMVI
NCI-H460 = tested on: NCI-H460
786-0 = tested on: 786-0
SF-295 = tested on: SF-295
NCI/ADR-RES = tested on: NCI/ADR-RES
U-251 = tested on: U-251

Clc1ccc(-c2cc(-c3cc(-c4ccc(Cl)cc4)[nH]n3)[nH]n2)cc1
GI50 (T47D): > 100 µM (inactive) | GI50 (OVCAR-5): > 100 µM (inactive) | GI50 (NCI-H226): > 100 µM (inactive) | GI50 (SK-OV-3): > 100 µM (inactive) | GI50 (M14): > 100 µM (inactive) | GI50 (BT-549): > 100 µM (inactive) | GI50 (UO-31): > 100 µM (inactive) | GI50 (SK-MEL-5): > 100 µM (inactive) | GI50 (COLO 205): > 100 µM (inactive) | GI50 (NCI-H522): > 100 µM (inactive) | GI50 (OVCAR-3): > 100 µM (inactive) | GI50 (ACHN): > 100 µM (inactive) | GI50 (SK-MEL-2): > 100 µM (inactive) | GI50 (IGROV-1): > 100 µM (inactive) | GI50 (Malme-3M): > 100 µM (inactive) | GI50 (MOLT-4): > 100 µM (inactive) | GI50 (A498): > 100 µM (inactive) | GI50 (EKVX): > 100 µM (inactive) | GI50 (UACC-257): > 100 µM (inactive) | GI50 (MDA-N): > 100 µM (inactive) | GI50 (MDA-MB-435): > 100 µM (inactive) | GI50 (NCI-H23): > 100 µM (inactive) | GI50 (RXF 393): > 100 µM (inactive) | GI50 (K562): > 100 µM (inactive) | GI50 (PC-3): > 100 µM (inactive) | GI50 (DU-145): > 100 µM (inactive) | GI50 (HCT-116): > 100 µM (inactive)

CCOC(=O)C1(C(=O)OCC)CN(CC)CN(c2ccccc2)C1
GI50 (OVCAR-5): 19.2 µM (inactive) | GI50 (SK-MEL-28): 18.7 µM (inactive) | GI50 (SK-OV-3): > 100 µM (inactive) | GI50 (SF-268): 69.2 µM (inactive) | GI50 (SNB-75): 19.4 µM (inactive) | GI50 (M14): 19.1 µM (inactive) | GI50 (BT-549): 20.8 µM (inactive) | GI50 (MCF7): 18.5 µM (inactive) | GI50 (HCT-15): 16 µM | GI50 (UO-31): 28 µM (inactive) | GI50 (SNB-19): > 100 µM (inactive) | GI50 (CAKI-1): 17.8 µM (inactive) | GI50 (HT-29): 17.8 µM (inactive) | GI50 (OVCAR-4): 25.1 µM (inactive) | GI50 (SK-MEL-5): 34.8 µM (inactive) | GI50 (KM12): > 100 µM (inactive) | GI50 (SW-620): 30.6 µM (inactive) | GI50 (COLO 205): 18.2 µM (inactive) | GI50 (TK-10): 19 µM (inactive) | GI50 (CCRF-CEM): 16.2 µM (inactive) | GI50 (A549): 22.2 µM (inactive) | GI50 (NCI-H522): 29.3 µM (inactive) | GI50 (OVCAR-3): 18.5 µM (inactive) | GI50 (ACHN): 19.9 µM (inactive) | GI50 (SF-539): 21.5 µM (inactive) | GI50 (RPMI-8226): 18.2 µM (inactive) | GI50 (IGROV-1): 19.6 µM (inactive) | GI50 (UACC-62): 26.5 µM (inactive) | GI50 (HCC 2998): 15.4 µM (inactive) | GI50 (Malme-3M): 38.3 µM (inactive) | GI50 (SN12C): 37.1 µM (inactive) | GI50 (MOLT-4): 18.3 µM (inactive) | GI50 (A498): > 100 µM (inactive) | GI50 (EKVX): 17.6 µM (inactive) | GI50 (SR): 21 µM (inactive) | GI50 (OVCAR-8): 21.5 µM (inactive) | GI50 (HOP-92): 16.5 µM (inactive) | GI50 (HL-60): 22.2 µM (inactive) | GI50 (UACC-257): 17.2 µM (inactive) | GI50 (MDA-N): 35.6 µM (inactive) | GI50 (MDA-MB-435): 19.1 µM (inactive) | GI50 (NCI-H23): 18.4 µM (inactive) | GI50 (HOP-62): 21.1 µM (inactive) | GI50 (Hs-578T): > 100 µM (inactive) | GI50 (RXF 393): 17.1 µM (inactive) | GI50 (LOX IMVI): 91.2 µM (inactive) | GI50 (K562): 39.4 µM (inactive) | GI50 (NCI-H460): 35.4 µM (inactive) | GI50 (786-0): 19.8 µM (inactive) | GI50 (DU-145): 30 µM (inactive) | GI50 (SF-295): > 100 µM (inactive) | GI50 (HCT-116): 48.3 µM (inactive) | GI50 (NCI/ADR-RES): 45.6 µM (inactive)

O=C(Nn1c(-c2cccs2)nc2ccc(I)cc2c1=O)c1ccccc1
GI50 (OVCAR-5): 37.8 µM (inactive) | GI50 (SK-MEL-28): 24.7 µM (inactive) | GI50 (NCI-H226): 28.5 µM (inactive) | GI50 (SF-268): 34.4 µM (inactive) | GI50 (M14): 36.3 µM (inactive) | GI50 (BT-549): 16.4 µM (inactive) | GI50 (HCT-15): 30.6 µM | GI50 (UO-31): 28.3 µM (inactive) | GI50 (SNB-19): 21.3 µM (inactive) | GI50 (CAKI-1): 21.9 µM (inactive) | GI50 (HT-29): 29.8 µM (inactive) | GI50 (OVCAR-4): 23 µM (inactive) | GI50 (SK-MEL-5): 21.9 µM (inactive) | GI50 (KM12): 27.9 µM (inactive) | GI50 (SW-620): 71.6 µM (inactive) | GI50 (COLO 205): 30.7 µM (inactive) | GI50 (TK-10): 30.3 µM (inactive) | GI50 (A549): 18.8 µM (inactive) | GI50 (NCI-H522): 22.1 µM (inactive) | GI50 (OVCAR-3): 16.9 µM (inactive) | GI50 (ACHN): 30.7 µM (inactive) | GI50 (IGROV-1): 20.2 µM (inactive) | GI50 (UACC-62): 20.6 µM (inactive) | GI50 (HCC 2998): 22 µM (inactive) | GI50 (SN12C): 35.6 µM (inactive) | GI50 (MOLT-4): 41.3 µM (inactive) | GI50 (EKVX): 27.8 µM (inactive) | GI50 (SR): 23.6 µM (inactive) | GI50 (OVCAR-8): 39 µM (inactive) | GI50 (HOP-92): 17.8 µM (inactive) | GI50 (MDA-N): 43.9 µM (inactive) | GI50 (MDA-MB-435): 20.6 µM (inactive) | GI50 (NCI-H23): 21.2 µM (inactive) | GI50 (HOP-62): 40.7 µM (inactive) | GI50 (U-251): 24.7 µM (inactive) | GI50 (RXF 393): 35.4 µM (inactive) | GI50 (LOX IMVI): 21.4 µM (inactive) | GI50 (PC-3): 33.9 µM (inactive) | GI50 (NCI-H460): 26.8 µM (inactive) | GI50 (786-0): 43.2 µM (inactive) | GI50 (DU-145): 20.6 µM (inactive) | GI50 (SF-295): 26.9 µM (inactive) | GI50 (HCT-116): 35.3 µM (inactive) | GI50 (NCI/ADR-RES): 31.8 µM (inactive)

— ChEMBL document CHEMBL1201862, “PubChem BioAssay data set” (2004)
